Results: publication PMC12744750 (Plant Communications, 2025)
Ends that are not written are not given here.

Legend:
[1] = test system: ETR1:HA; assay: Co-immunoprecipitation of PLS:GFP and ETR1:HA in N. benthamiana leaves; format: binding, Arabidopsis; conditions: Co-IP, western blotting, 3 days after infiltration
From the text: To investigate the interaction between the PLS peptide and the ethylene receptor ETR1, two DNA constructs were created by Gateway cloning. The […] PLS gene (without the stop codon) was inserted into the pEarlyGate103 (pEG103) destination vector, which contained the pro35S promoter and a C-terminal GFP tag, to produce a vector containing pro35S::PLS:GFP DNA. The ETR1 cDNA was inserted into the pEarlyGate301 (pEG301) vector to create a pro35S::ETR1:HA construct to express an ETR1 protein with a C-terminal HA tag. pro35S::GFP was used as a control. The primers used to clone ETR1 and PLS are found in supplemental Table 9.
Constructs were transiently expressed in N. benthamiana (tobacco) leaves as described previously ([Voinnet et al., 2003]). Experiments were replicated up to five times. Competent Agrobacterium tumefaciens GV3101 cells were transformed with the desired plasmid containing the gene of interest and injected with a syringe. The plants were approximately 7–10 weeks old; the chosen leaves were healthy and 3–6 cm in length, and 3 to 4 leaves were infiltrated with each construct. […]
SDS–PAGE was used to separate protein fragments. The complexed proteins from the pulldown assay were analyzed on 10%–12% acrylamide gels. […] The horseradish peroxidase conjugated to the secondary antibody was detected using X-ray film. […]

[2] = test system: root epidermal cells, endomembrane markers; assay: Subcellular localization by confocal microscopy; format: cell-based, Arabidopsis
From the text: (§1) proPLS::PLS:GFP comprises a 1.5-kb PLS promoter sequence ([Casson et al., 2002]) fused to the PLS open reading frame in pMDC107 (obtained from Prof. P.J. Hussey, Durham University) as a C-terminal GFP translational fusion. The PLS ORF with its 1.5-kb promoter was amplified from the TOPO 2.1 vector, which contained the PLS gene sequence with promoter ([Casson et al., 2002]); the primers used for cloning are listed in supplemental Table 9. pls mutant plants were transformed using the method of [Clough and Bent (1998)]. proPLS::GFP plants were generated using the 1.5-kb PLS promoter ([Casson et al., 2002]) fused to GFP in a wild-type background. p35S::GFP seedlings were obtained from Dr. Piers Hemsley, Durham University. […] Seedlings were scanned to create a digital image, and root lengths of the seedlings were measured using ImageJ. […]
CSLM images for propidium iodide and GFP were obtained using a Leica SP5 TCS confocal microscope as described previously ([Rowe et al., 2016]). proPLS::PLS:GFP, proPLS::GFP, and pro35S::GFP seedlings were grown for 7 days on Phytagel ½ MS10 medium before ∼25 mm of the root tip was removed and mounted in dH2O prior to imaging. […] For standard photomultiplier tubes, a laser power of 21% and a smart gain of 800–1000 mV were used, depending on the intensity of the fluorescence. […]

[3] = test system: pls mutant; assay: Complementation of pls mutant by proPLS::PLS:GFP transgene; format: in vivo, Arabidopsis thaliana; conditions: single-copy proPLS::PLS:GFP in pls background
From the text: as §1, with “University. Seedlings of Arabidopsis thaliana ecotype C24 or Col-0, pls mutants, and transgenic PLS overexpressers, all from lab stocks, were grown on solid sterile half-strength (2.2 g/l) Murashige and Skoog medium (Sigma-Aldrich) containing 10 g/l sucrose (half-strength [½] MS10 medium) solidified with 2.5 g/l Phytagel (Sigma-Aldrich) in 90-mm Petri dishes (Sarstedt, Leicester, UK) at 21°C under a 16-h photoperiod as described previously ([Casson et al., 2002]; [Chilley et al., 2006]).” for “University.”

[4] = test system: pls mutant primary root; assay: Root length of pls mutant under exogenous copper; format: in vivo, Arabidopsis thaliana; conditions: 0-50 μM CuSO4, 12 days, n = 18
From the text: as §1
Root length (n = 18 from samples grown on 3 independent plates) was measured after 12 days using ImageJ. […]

Row | Substance | binding of ETR1:HA [1] | co-localization with RFP:HDEL (ER lumen) ([2]; proPLS::PLS:GFP plants) | co-localization with ER Tracker Red ([2]; proPLS::PLS:GFP stably transformed Arabidopsis) | transformants fully complementing pls mutant [3] | copper hypersensitivity of pls mutant [4]
1 | PLS:GFP: fusion protein of PLS with C-terminal GFP (MKPRLCFNFRRRSISPCYISISYLLVAKLFKLFKIH-{GFP}; cysteine pairing not given here) | ETR1:HA bound to PLS:GFP | co-localized with the ER lumen–targeted red fluorescent protein RFP:HDEL | co-localized with the ER marker dye ER-Tracker Red | four | 
2 | copper |  |  |  |  | not copper hypersensitive
